ChEMBL document CHEMBL2321683, “Discovery of potent, selective and orally bioavailable imidazo[1,5-a]pyrazine derived ACK1 inhibitors” (Bioorg Med Chem Lett, 2013)

Experiments:
Activated CDC42 kinase 1 [1] = target: T1, Activated CDC42 kinase 1 (Homo sapiens, UniProt Q07912)
Target sequence in this assay (Q07912 whole entry): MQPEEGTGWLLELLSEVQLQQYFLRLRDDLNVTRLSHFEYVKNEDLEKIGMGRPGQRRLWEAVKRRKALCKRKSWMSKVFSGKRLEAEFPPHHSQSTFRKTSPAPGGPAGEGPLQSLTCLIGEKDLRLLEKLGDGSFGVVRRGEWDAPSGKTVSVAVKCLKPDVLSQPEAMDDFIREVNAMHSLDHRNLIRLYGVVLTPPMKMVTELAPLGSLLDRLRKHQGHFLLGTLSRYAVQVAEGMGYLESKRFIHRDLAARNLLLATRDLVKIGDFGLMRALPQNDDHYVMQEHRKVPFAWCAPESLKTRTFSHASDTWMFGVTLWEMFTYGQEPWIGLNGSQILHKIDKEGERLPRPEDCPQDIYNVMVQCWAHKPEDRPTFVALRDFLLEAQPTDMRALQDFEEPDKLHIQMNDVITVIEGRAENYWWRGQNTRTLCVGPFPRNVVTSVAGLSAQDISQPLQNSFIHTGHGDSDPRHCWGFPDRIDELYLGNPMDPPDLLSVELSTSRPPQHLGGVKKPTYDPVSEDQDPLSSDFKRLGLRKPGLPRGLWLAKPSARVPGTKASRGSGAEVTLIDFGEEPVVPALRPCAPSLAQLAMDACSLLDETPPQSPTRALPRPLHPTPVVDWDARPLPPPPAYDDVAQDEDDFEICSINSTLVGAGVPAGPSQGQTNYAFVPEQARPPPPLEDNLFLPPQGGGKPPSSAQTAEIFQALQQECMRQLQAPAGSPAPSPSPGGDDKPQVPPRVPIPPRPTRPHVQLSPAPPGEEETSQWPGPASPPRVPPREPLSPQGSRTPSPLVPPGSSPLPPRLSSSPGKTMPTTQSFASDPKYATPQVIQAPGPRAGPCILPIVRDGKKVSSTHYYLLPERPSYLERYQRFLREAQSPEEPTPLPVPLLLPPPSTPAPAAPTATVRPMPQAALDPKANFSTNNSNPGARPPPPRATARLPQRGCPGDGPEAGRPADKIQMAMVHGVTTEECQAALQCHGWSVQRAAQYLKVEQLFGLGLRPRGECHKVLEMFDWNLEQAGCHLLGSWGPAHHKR

Activated CDC42 kinase 1 [2] = target: T1, Activated CDC42 kinase 1; remark: listed apart in the source
Target sequence in this assay (Q07912 whole entry): as above

[3] = Cmax in mouse at 20 mg/kg, po; format: ADME, organism-based; set-up: dose 20 mg/kg, route oral; settings: in vivo
[4] = AUC in mouse at 20 mg/kg, po; format: ADME, organism-based; set-up: dose 20 mg/kg, route oral; settings: plasma
[5] = (§1) Oral bioavailability in mouse at 20 mg/kg; format: ADME, organism-based; settings: in vivo
[6] = Half life in mouse at 20 mg/kg, po; format: ADME, organism-based; set-up: dose 20 mg/kg, route oral; settings: in vivo
[7] = Clearance in mouse at 2 mg/kg, iv; format: ADME, organism-based; set-up: dose 2 mg/kg, route intravenous; settings: in vivo
[8] = Volume of distribution at steady state in mouse at 2 mg/kg, iv; format: ADME, organism-based; set-up: dose 2 mg/kg, route intravenous; settings: in vivo, read-out: Vdss
[9] = Permeability of the compound by PAMPA at pH 5; format: ADME; settings: read-out: permeability
[10] = target: Tyrosine-protein kinase Yes (Homo sapiens) (UniProt P07947); assay: Inhibition of YES (unknown origin) at 1 uM
Tyrosine-protein kinase Yes (Homo sapiens), sequence (P07947 2-543 limits assumed): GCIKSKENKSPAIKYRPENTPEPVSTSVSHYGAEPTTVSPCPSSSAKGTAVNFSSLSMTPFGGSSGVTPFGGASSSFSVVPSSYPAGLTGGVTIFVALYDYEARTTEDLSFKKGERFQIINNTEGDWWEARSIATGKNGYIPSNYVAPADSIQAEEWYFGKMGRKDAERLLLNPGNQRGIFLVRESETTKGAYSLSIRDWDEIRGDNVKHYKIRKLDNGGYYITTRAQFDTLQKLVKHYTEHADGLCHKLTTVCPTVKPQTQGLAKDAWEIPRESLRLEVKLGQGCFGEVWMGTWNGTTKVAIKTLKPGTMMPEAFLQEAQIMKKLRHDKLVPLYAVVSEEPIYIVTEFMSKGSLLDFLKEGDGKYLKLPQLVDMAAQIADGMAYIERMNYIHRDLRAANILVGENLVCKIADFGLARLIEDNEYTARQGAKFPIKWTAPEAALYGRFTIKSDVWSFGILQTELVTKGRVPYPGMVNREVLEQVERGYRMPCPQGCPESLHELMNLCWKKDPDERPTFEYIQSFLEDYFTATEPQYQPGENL

[11] = target: Tyrosine-protein kinase Blk (Homo sapiens) (UniProt P51451); assay: Inhibition of BLK (unknown origin) at 1 uM
Tyrosine-protein kinase Blk (Homo sapiens), sequence (P51451 2-505 limits assumed): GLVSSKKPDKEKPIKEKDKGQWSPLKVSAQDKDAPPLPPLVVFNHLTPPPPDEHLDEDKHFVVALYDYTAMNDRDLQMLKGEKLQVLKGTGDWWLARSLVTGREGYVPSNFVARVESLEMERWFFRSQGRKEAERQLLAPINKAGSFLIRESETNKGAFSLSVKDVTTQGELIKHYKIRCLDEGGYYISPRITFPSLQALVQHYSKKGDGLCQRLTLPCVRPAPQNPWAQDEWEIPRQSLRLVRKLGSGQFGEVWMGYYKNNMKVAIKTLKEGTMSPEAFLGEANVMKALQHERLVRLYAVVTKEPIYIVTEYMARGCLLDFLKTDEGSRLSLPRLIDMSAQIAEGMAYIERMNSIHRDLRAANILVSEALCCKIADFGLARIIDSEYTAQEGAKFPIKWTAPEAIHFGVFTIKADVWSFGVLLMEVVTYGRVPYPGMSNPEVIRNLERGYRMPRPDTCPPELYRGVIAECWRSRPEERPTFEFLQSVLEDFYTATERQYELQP

[12] = target: Tyrosine-protein kinase Srms (Homo sapiens) (UniProt Q9H3Y6); assay: Inhibition of SRMS (unknown origin) at 1 uM
Tyrosine-protein kinase Srms (Homo sapiens), sequence (Q9H3Y6 whole entry): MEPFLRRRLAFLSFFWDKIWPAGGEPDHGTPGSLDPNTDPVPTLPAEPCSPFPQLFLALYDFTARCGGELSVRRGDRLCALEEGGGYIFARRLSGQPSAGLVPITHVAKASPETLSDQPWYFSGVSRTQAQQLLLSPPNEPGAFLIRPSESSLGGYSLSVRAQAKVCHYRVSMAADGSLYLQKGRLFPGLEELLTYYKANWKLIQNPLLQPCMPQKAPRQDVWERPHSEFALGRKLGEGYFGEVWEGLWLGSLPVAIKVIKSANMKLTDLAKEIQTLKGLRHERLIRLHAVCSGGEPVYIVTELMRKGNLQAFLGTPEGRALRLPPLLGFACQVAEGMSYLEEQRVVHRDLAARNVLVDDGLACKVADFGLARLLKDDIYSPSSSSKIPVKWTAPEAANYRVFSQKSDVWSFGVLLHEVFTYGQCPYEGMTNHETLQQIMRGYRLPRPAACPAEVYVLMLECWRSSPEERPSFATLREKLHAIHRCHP

[13] = target: Tyrosine-protein kinase Lck (Homo sapiens) (UniProt P06239); assay: Inhibition of LCK (unknown origin) at 1 uM
Tyrosine-protein kinase Lck (Homo sapiens), sequence (P06239 2-509 limits assumed): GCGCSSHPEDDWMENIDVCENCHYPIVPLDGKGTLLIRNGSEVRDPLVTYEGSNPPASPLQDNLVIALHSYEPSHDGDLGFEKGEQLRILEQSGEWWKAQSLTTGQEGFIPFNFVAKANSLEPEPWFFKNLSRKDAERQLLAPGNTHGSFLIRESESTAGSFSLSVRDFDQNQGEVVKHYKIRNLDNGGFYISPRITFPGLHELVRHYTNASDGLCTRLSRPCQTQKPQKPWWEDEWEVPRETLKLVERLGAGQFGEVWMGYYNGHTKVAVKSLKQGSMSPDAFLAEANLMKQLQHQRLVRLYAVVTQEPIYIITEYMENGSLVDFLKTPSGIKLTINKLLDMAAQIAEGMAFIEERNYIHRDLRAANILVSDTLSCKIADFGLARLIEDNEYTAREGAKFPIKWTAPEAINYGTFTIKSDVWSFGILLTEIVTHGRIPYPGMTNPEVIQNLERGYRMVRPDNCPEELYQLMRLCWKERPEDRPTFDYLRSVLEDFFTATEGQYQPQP

[14] = target: T2, Tyrosine-protein kinase Tec (Homo sapiens) (UniProt P42680); assay: Inhibition of TEC (unknown origin) at 1 uM
T2 sequence (whole entry): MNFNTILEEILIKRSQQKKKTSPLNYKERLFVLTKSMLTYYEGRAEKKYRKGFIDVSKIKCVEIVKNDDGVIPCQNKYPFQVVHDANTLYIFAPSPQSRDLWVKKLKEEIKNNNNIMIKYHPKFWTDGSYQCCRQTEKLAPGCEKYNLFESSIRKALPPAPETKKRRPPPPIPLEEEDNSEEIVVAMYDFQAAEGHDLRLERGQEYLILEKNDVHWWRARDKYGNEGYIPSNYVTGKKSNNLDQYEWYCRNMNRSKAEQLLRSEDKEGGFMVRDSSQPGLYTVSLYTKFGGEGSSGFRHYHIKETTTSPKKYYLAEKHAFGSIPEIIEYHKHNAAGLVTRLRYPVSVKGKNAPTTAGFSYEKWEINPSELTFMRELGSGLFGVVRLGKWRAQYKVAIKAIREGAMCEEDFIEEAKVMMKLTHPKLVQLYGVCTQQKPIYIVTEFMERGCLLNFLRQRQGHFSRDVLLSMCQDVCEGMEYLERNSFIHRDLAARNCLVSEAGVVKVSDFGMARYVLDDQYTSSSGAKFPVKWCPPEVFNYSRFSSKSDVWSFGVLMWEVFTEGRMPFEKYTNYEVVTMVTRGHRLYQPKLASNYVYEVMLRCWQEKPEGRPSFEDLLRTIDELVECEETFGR

[15] = target: Tyrosine-protein kinase FRK (Homo sapiens) (UniProt P42685); assay: Inhibition of FRK (unknown origin) at 1 uM
Activated CDC42 kinase 1 [16] = target: T1, Activated CDC42 kinase 1; settings: 1 uM
Target sequence in this assay (Q07912 whole entry, looked up): as the sequence (Q07912 whole entry) above

[17] = Aqueous solubility of the compound at pH 7.4; format: physicochemical
[18] = target: Tyrosine-protein kinase Fgr (Homo sapiens) (UniProt P09769); assay: Inhibition of FGR (unknown origin) at 1 uM
Tyrosine-protein kinase Fgr (Homo sapiens), sequence (P09769 2-529 limits assumed): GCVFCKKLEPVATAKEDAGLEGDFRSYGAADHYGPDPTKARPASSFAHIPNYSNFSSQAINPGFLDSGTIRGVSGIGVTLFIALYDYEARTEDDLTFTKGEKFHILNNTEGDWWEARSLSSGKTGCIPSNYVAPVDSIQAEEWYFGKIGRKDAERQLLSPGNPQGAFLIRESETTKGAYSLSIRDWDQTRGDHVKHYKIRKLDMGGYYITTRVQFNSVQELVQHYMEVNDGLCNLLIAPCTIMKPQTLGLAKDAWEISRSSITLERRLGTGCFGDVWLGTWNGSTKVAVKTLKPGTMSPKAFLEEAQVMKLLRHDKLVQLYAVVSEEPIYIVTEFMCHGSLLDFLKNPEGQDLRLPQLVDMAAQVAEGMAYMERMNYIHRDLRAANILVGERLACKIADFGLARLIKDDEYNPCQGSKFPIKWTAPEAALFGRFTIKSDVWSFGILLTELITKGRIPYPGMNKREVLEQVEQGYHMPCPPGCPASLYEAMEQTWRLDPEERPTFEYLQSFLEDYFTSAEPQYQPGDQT

[19] = Permeability of the compound by PAMPA at pH 7.4; format: ADME; settings: read-out: permeability
Cytochrome P450 2D6 = Cytochrome P450 2D6 (Homo sapiens, UniProt P10635); assay: Inhibition of CYP2D6 (unknown origin); format: ADME
Cytochrome P450 2D6, sequence (P10635 whole entry): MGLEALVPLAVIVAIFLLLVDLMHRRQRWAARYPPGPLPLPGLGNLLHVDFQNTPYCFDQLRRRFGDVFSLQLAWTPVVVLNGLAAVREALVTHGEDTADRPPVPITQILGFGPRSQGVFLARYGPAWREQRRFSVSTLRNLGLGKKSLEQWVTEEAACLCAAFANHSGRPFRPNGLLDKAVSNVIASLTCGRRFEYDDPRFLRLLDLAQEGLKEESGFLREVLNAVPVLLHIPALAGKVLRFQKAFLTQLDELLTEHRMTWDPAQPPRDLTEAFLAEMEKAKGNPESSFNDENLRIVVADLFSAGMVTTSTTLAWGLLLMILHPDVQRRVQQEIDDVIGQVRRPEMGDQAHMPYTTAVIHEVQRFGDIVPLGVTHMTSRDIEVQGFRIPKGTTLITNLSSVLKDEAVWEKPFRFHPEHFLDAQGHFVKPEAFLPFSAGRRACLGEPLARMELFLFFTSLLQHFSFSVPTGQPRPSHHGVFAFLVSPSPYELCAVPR

[20] = target: Tyrosine-protein kinase Fyn (Homo sapiens) (UniProt P06241); assay: Inhibition of FYN (unknown origin) at 1 uM
[21] = target: Proto-oncogene tyrosine-protein kinase Src (Homo sapiens) (UniProt P12931); assay: Inhibition of SRC (unknown origin) at 1 uM
Cytochrome P450 3A4 = Cytochrome P450 3A4 (Homo sapiens, UniProt P08684); assay: Inhibition of CYP3A4 (unknown origin); format: ADME
[22] = target: T3, Tyrosine-protein kinase TXK (Homo sapiens) (UniProt P42681); assay: Inhibition of TXK (unknown origin) at 1 uM
T3 sequence (whole entry): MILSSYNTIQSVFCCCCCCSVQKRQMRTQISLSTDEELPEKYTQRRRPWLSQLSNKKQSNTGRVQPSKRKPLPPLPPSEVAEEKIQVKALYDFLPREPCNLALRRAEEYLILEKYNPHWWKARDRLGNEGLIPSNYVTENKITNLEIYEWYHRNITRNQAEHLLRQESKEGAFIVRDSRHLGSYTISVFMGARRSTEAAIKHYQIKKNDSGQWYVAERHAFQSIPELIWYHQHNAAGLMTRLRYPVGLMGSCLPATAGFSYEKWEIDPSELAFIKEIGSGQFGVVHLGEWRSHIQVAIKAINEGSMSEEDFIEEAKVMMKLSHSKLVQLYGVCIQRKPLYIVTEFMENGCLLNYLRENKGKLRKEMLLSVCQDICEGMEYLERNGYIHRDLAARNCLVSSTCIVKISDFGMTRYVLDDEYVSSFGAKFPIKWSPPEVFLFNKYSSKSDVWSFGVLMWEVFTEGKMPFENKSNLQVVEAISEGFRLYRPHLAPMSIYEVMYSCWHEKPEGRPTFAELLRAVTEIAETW

Cytochrome P450 1A2 = target: T4, Cytochrome P450 1A2 (Homo sapiens, UniProt P05177); assay: Inhibition of CYP1A2 (unknown origin); format: ADME
T4 sequence (P05177 whole entry): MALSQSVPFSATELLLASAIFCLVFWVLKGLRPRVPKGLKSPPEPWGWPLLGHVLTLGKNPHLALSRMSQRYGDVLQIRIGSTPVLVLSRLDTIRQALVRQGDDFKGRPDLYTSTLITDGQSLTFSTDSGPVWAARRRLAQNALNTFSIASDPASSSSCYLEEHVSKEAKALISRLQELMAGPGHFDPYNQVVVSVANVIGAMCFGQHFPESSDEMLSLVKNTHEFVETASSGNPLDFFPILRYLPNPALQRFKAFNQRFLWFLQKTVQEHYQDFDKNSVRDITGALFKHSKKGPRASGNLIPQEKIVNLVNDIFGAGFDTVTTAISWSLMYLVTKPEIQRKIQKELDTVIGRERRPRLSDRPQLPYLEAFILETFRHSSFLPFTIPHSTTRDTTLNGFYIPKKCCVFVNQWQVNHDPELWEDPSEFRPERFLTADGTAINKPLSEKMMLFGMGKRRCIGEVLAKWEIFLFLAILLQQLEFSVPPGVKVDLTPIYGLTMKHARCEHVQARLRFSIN

[23] = target: Tyrosine-protein kinase HCK (Homo sapiens) (UniProt P08631); assay: Inhibition of HCK (unknown origin) at 1 uM
[24] = target: Tyrosine-protein kinase Lyn (Homo sapiens) (UniProt P07948); assay: Inhibition of LYNB (unknown origin) at 1 uM
Cytochrome P450 2C9 = Cytochrome P450 2C9 (Homo sapiens, UniProt P11712); assay: Inhibition of CYP2C9 (unknown origin); format: ADME
Cytochrome P450 2C9, sequence (P11712 whole entry): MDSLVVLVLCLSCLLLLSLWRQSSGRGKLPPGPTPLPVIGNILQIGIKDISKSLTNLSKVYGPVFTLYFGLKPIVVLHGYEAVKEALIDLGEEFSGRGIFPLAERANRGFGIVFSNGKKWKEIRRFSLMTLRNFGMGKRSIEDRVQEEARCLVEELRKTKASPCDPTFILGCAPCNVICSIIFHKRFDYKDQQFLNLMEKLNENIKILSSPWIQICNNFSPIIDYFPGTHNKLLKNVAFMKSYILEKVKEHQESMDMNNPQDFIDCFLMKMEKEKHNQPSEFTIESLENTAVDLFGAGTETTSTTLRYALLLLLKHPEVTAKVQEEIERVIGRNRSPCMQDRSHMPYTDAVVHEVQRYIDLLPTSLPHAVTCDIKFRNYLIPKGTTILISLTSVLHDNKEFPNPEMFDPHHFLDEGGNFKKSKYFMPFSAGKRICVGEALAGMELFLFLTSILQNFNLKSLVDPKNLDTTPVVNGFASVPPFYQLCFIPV

Mus musculus = assay: as §1; format: ADME, organism-based; settings: in vivo

Row | SMILES | IC50 (Activated CDC42 kinase 1 [1]) [µM] | Cmax [3] [µM] | AUC [4] [µg·h/mL] | bioavailability [5] [%] | half-life [6] [h] | clearance [7] [L/h/kg] | Vd [8] [L/kg] | other results
1 | c1ccc(-c2oc3ncnc(NC[C@@H]4CCCO4)c3c2-c2ccccc2)cc1 | 0.62 |  |  |  |  |  |  | 
2 | Nc1nccn2c(C3CCC3)nc(-c3ccn(Cc4ccccc4)c(=O)c3)c12 |  |  |  |  |  |  |  | IC50 (Activated CDC42 kinase 1 [2]): > 10 µM
3 | Nc1nccn2c(C3CCC3)nc(-c3ccc(C(O)c4ccccc4)cc3)c12 (stereo not given) |  |  |  |  |  |  |  | IC50 (Activated CDC42 kinase 1 [2]): 0.28 µM
4 | C[C@]1(O)C[C@@H](c2nc(-c3ccc(Oc4ccccc4)cc3)c3c(N)nccn32)C1 |  | 11.2 | 4.68 | 87 | 4.9 | 3.72 | 1.7 | 
5 | COC(C)(C)CCn1nc(Nc2c(C)cccc2C)c2cnc(Nc3ccc(OCCN4CCCC4)c(F)c3)nc21 | 0.02 |  |  |  |  |  |  | 
6 | COc1cc(Oc2ccccc2)ccc1-c1nc([C@H]2C[C@@](C)(O)C2)n2ccnc(N)c12 |  | 5.9 | 8.48 | 98 | 3.8 | 2.34 | 1.8 | Papp [9]: 2800 nm/s; inhibition [10]: > 80%; inhibition [11]: > 80%; inhibition [12]: > 80%; inhibition [13]: > 80%; inhibition [14]: > 80%; inhibition [15]: > 80%; inhibition (Activated CDC42 kinase 1 [16]): 100%; solubility [17]: > 100 µM; inhibition [18]: > 80%; Papp [19]: 5910 nm/s; IC50 (Cytochrome P450 2D6): > 20 µM; inhibition [20]: > 80%; inhibition [21]: > 80%; IC50 (Cytochrome P450 3A4): > 20 µM; inhibition [22]: > 80%; IC50 (Cytochrome P450 1A2): > 20 µM; inhibition [23]: > 80%; inhibition [24]: > 80%; IC50 (Cytochrome P450 2C9): > 20 µM
7 | c1ccc(-c2c(-c3ccc(OCCN4CCCC4)cc3)[nH]c3ncnc(NCC4SCCS4)c23)cc1 | 0.01 |  |  |  |  |  |  | 
8 | CC(O)(c1ccccc1)c1ccc(-c2nc([C@H]3C[C@@](C)(O)C3)n3ccnc(N)c23)cc1 (mixture of isomers) |  | 4.6 | 3.94 | 105 | 2.6 | 5.34 | 3.3 | 
9 | C[C@]1(O)C[C@@H](c2nc(-c3ccc(C(F)(F)c4ccccc4)cc3)c3c(N)nccn32)C1 |  | 5 | 8.54 |  | 4.3 | 3.78 | 1.7 | F (Mus musculus): 160%
10 | Nc1nccn2c(C3CCC3)nc(-c3ccc(Oc4ccccc4)cc3)c12 |  | 0.9 | 1.24 | 50 | 5.5 | 8.1 | 9 | 
